# System: Artemia salina
# Settings: in vivo, 24 h
# Description: Alpha-Nemertides were prepared as described in Example 2, above, or by manual synthesis […] on 2-chlorotrityl resin as described in the Material and methods section below. […]. The brine shrimp assay is commonly used as toxicity assay, but is particularly suitable in the current work as a model system for crustaceans. In the first round of experiments Nemertides α-1, α-2, α-5, and α-6 were evaluated. […]. Artemia salina Assay of Alpha-Nemertides. 100 μl of sea water containing about 20-30 brine shrimps were added to each experimental well of a 96-well microplate. 100 μl of peptide solutions were then added to each well. As a control, some wells were filled with 100 μl of seawater containing shrimps and 100 μl milliQwater. The plates were covered and incubated in the dark at room temperature for 24 hours. After 24 hours, 10 second video clips of each well were filmed through a microscope. The shrimps were subsequently counted and categorized as either dead (not moving), affected (moving slowly, mostly at the bottom of the well) or normal (moving normally compared to the control at all levels of the well). The shrimps were then immobilized by addition of 100 μl of methanol. After 1 hour the total number of shrimps in each well was counted and the ratio (dead+affected)/total was calculated.
compound,measurement,value
CC[C@H](C)[C@@H]1NC(=O)[C@@H](NC(=O)CN)CSSC[C@@H]2NC(=O)[C@@H]3CSSC[C@@H](C(=O)N[C@@H](CC(N)=O)C(=O)N4C[C@H](O)C[C@H]4C(=O)N4C[C@H](O)C[C@H]4C(=O)N[C@@H](CC(N)=O)C(=O)N[C@@H](CCC(N)=O)C(=O)O)NC(=O)[C@H](Cc4c[nH]cn4)NC(=O)[C@H](Cc4ccccc4)NC(=O)[C@H](CC(N)=O)NC(=O)[C@H](Cc4c[nH]c5ccccc45)NC(=O)CNC(=O)[C@H](CSSC[C@H](NC(=O)[C@H](Cc4ccccc4)NC(=O)[C@H](CO)NC(=O)CNC(=O)[C@H]([C@@H](C)O)NC(=O)[C@H](C)NC1=O)C(=O)N[C@@H]([C@@H](C)O)C(=O)N[C@@H](CC(C)C)C(=O)N[C@@H](CO)C(=O)N[C@@H](CCCCN)C(=O)NCC(=O)N3)NC(=O)[C@H](CC(N)=O)NC(=O)[C@H](CCCCN)NC(=O)[C@H]([C@@H](C)O)NC2=O [Nemertide α-5],IC50,< 1000 nM
